The values below are quoted from earlier work in patent US20230320397A1, “EXTRACTS FOR HEALTH SUPPLEMENTS” (EXTENDED LONGEVITY, priority 2022, published 2023).

For the data set the following is noted: by the use of heat.

For `COc1cc(/C=C/C(=O)CC(=O)/C=C/c2ccc(O)c(OC)c2)ccc1O` [curcumin], the increased solubility is 12 fold.
